Measurements from ChEMBL document CHEMBL1155480, “Selective one-pot multicomponent synthesis and anti-tubercular evaluation of 5-(aryl/cyclohexylsulfanyl)-2-alkoxy-4,6-diarylnicotinonitriles” (2010).
≈ marks a conversion by molar mass, not a printed value.

Test system: Mycobacterium tuberculosis
Assay: Antimycobacterial activity against Mycobacterium tuberculosis H37Rv by agar dilution method
Type: functional

CCOc1nc(-c2ccc(Cl)cc2)c(Sc2ccc(OC)cc2)c(-c2ccc(N(C)C)cc2)c1C#N
MIC: 48.5 µM (≈ 25 µg/mL)

CCOc1nc(-c2ccc(Cl)cc2)c(Sc2ccc(Cl)cc2)c(-c2ccccc2)c1C#N
MIC: 13.1 µM (≈ 6.25 µg/mL)

CCOc1nc(-c2ccc(Cl)cc2)c(Sc2ccc(C)cc2)c(-c2ccccc2)c1C#N
MIC: 54.8 µM (≈ 25 µg/mL)

CCOc1nc(-c2ccc(Br)cc2)c(Sc2ccc(Cl)cc2)c(-c2ccc(N(C)C)cc2)c1C#N
MIC: 5.6 µM (≈ 3.16 µg/mL)

COc1nc(-c2ccccc2)c(Sc2ccc(Cl)cc2)c(-c2ccc(N(C)C)cc2)c1C#N
MIC: 26.5 µM (≈ 12.5 µg/mL)

CCOc1nc(-c2ccc(Cl)cc2)c(SC2CCCCC2)c(-c2ccc(C)cc2)c1C#N
MIC: 27 µM (≈ 12.5 µg/mL)

CCOc1nc(-c2ccc([N+](=O)[O-])cc2)c(SC2CCCCC2)c(-c2ccccc2)c1C#N
MIC: 6.8 µM (≈ 3.13 µg/mL)

COc1nc(-c2ccc(Cl)cc2)c(SC2CCCCC2)c(-c2ccc(Cl)cc2)c1C#N
MIC: 13.3 µM (≈ 6.24 µg/mL)

COc1nc(-c2ccc(Cl)cc2)c(SC2CCCCC2)c(-c2ccc(N(C)C)cc2)c1C#N
MIC: 13.1 µM (≈ 6.26 µg/mL)

CCOc1nc(-c2ccc(Cl)cc2)c(Sc2ccc(C)cc2)c(-c2ccc(OC)cc2)c1C#N
MIC: 51.3 µM (≈ 25 µg/mL)

COc1nc(-c2ccc(Cl)cc2)c(Sc2ccc(Cl)cc2)c(-c2ccccc2)c1C#N
MIC: 27.1 µM (≈ 12.6 µg/mL)

CCOc1nc(-c2ccccc2)c(SC2CCCCC2)c(-c2ccccc2)c1C#N
MIC: 25 µM (≈ 10.4 µg/mL)

CCOc1nc(-c2ccc(Cl)cc2)c(SC2CCCCC2)c(-c2ccccc2)c1C#N
MIC: 27.8 µM (≈ 12.5 µg/mL)

CCOc1nc(-c2ccc(Cl)cc2)c(SC2CCCCC2)c(-c2ccc(Cl)cc2)c1C#N
MIC: 6.5 µM (≈ 3.14 µg/mL)

CCOc1nc(-c2ccc(C)cc2)c(SC2CCCCC2)c(-c2ccc(N(C)C)cc2)c1C#N
MIC: 26.5 µM (≈ 12.5 µg/mL)

CCOc1nc(-c2ccc(Cl)cc2)c(Sc2ccccc2)c(-c2ccc(Cl)cc2)c1C#N
MIC: 26.2 µM (≈ 12.5 µg/mL)

CCOc1nc(-c2ccc(OC)cc2)c(Sc2ccc(Cl)cc2)c(-c2ccc(N(C)C)cc2)c1C#N
MIC: 24.2 µM (≈ 12.5 µg/mL)

CCOc1nc(-c2ccc([N+](=O)[O-])cc2)c(SC2CCCCC2)c(-c2ccc(N(C)C)cc2)c1C#N
MIC: 12.5 µM (≈ 6.28 µg/mL)

CCOc1nc(-c2ccc(Cl)cc2)c(SC2CCCCC2)c(-c2ccc(N(C)C)cc2)c1C#N
MIC: 25.4 µM (≈ 12.5 µg/mL)

COc1nc(-c2ccc(Cl)cc2)c(SC2CCCCC2)c(-c2ccccc2)c1C#N
MIC: 57.6 µM (≈ 25.1 µg/mL)

COc1nc(-c2ccc(Cl)cc2)c(SC2CCCCC2)c(-c2ccccc2Cl)c1C#N
MIC: 13.3 µM (≈ 6.24 µg/mL)

CCOc1nc(-c2ccc(Cl)cc2)c(Sc2ccccc2)c(-c2ccc(N(C)C)cc2)c1C#N
MIC: > 51.4 µM

CCOc1nc(-c2ccc(Cl)cc2)c(Sc2ccc(C)cc2)c(-c2ccc(Cl)cc2)c1C#N
MIC: 25.5 µM (≈ 12.5 µg/mL)

COc1nc(-c2ccccc2)c(Sc2ccc(Cl)cc2)c(-c2ccc(Cl)cc2)c1C#N
MIC: 27 µM (≈ 12.5 µg/mL)

COc1nc(-c2ccc(Cl)cc2)c(Sc2ccc(Cl)cc2)c(-c2ccc(N(C)C)cc2)c1C#N
MIC: 12.4 µM (≈ 6.28 µg/mL)

CCOc1nc(-c2ccc(Cl)cc2)c(Sc2ccc(C)cc2)c(-c2ccc(N(C)C)cc2)c1C#N
MIC: > 50 µM

COc1nc(-c2ccc(Cl)cc2)c(Sc2ccc(Cl)cc2)c(-c2ccc(Cl)cc2)c1C#N
MIC: 3.1 µM (≈ 1.54 µg/mL)

COc1ccc(-c2c(C#N)c(OC)nc(-c3ccc(Cl)cc3)c2Sc2ccc(Cl)cc2)cc1
MIC: 25.4 µM (≈ 12.5 µg/mL)

COc1ccc(-c2c(C#N)c(OC)nc(-c3ccc(Cl)cc3)c2SC2CCCCC2)cc1
MIC: 26.9 µM (≈ 12.5 µg/mL)

COc1nc(-c2ccc(Cl)cc2)c(SC2CCCCC2)c(-c2ccc(C)cc2)c1C#N
MIC: 28 µM (≈ 12.6 µg/mL)

CC[C@@H](CO)NCCN[C@@H](CC)CO [ETHAMBUTOL]
MIC: 7.6 µM (≈ 1.55 µg/mL)

NNC(=O)c1ccncc1 [ISONIAZID]
MIC: 0.4 µM (≈ 0.0549 µg/mL)

NC(=O)c1cnccn1 [PYRAZINAMIDE]
MIC: 50.8 µM (≈ 6.25 µg/mL)
